# Results: patent US20080255115A1, “THIAZOLIDINEDIONE DERIVATIVES AS PI3 KINASE INHIBITORS” (priority 2007, published 2008)
# Legend:
# PI3Kα = target: T1, PI3Kα (Homo sapiens, UniProt P42336); experiment: PI3K Alpha Leadseeker SPA Assay; assay type: biochemical; details: His-p110/p85 PI3K alpha, SPA imaging beads, P33-ATP; read-out: IC50 against PI3Kα
# T1 construct: His
# Experimental: PI3K Alpha Leadseeker SPA Assay
# Compounds of the present invention were tested according to the following assays and found as inhibitors of PI3 kinases, particularly PI3Kα. The activities (IC50) range from 1 to 500 μM against PI3Kα.
# SPA imaging beads are microspheres containing scintillant which emit light in the red region of the visible spectrum. As a result, these beads are ideally suited to use with a CCD imager such as the Viewlux. The Leadseeker beads used in this system are polystyrene beads that have been coupled with polyethyleneimine. When added to the assay mixture, the beads absorb both the substrate (PIP2) and product (PIP3). Adsorbed P^33-PIP3 will cause an increase in signal, measured as ADUs (analog to digital units). This protocol details the use of the PEI-PS Leadseeker beads for assays using His-p110/p85 PI3K alpha.
# Solid compounds are typically plated with 0.1 μl of 100% DMSO in all wells (except column 6 and 18) of a 384-well, flat bottom, low volume plate (Greiner 784075). […]
# The assay buffer contains MOPS (pH 6.5), CHAPS, and DTT. […] The signal is determined using a Viewlux detector and is then imported into curve fitting software (Activity Base) for construction of concentration response curves. […]
# Class I PI3-kinases = details: wortmannin, background section; read-out: IC50 against each of the various Class I PI3-kinases; cited from earlier work
# T1 sequence (P42336 whole entry): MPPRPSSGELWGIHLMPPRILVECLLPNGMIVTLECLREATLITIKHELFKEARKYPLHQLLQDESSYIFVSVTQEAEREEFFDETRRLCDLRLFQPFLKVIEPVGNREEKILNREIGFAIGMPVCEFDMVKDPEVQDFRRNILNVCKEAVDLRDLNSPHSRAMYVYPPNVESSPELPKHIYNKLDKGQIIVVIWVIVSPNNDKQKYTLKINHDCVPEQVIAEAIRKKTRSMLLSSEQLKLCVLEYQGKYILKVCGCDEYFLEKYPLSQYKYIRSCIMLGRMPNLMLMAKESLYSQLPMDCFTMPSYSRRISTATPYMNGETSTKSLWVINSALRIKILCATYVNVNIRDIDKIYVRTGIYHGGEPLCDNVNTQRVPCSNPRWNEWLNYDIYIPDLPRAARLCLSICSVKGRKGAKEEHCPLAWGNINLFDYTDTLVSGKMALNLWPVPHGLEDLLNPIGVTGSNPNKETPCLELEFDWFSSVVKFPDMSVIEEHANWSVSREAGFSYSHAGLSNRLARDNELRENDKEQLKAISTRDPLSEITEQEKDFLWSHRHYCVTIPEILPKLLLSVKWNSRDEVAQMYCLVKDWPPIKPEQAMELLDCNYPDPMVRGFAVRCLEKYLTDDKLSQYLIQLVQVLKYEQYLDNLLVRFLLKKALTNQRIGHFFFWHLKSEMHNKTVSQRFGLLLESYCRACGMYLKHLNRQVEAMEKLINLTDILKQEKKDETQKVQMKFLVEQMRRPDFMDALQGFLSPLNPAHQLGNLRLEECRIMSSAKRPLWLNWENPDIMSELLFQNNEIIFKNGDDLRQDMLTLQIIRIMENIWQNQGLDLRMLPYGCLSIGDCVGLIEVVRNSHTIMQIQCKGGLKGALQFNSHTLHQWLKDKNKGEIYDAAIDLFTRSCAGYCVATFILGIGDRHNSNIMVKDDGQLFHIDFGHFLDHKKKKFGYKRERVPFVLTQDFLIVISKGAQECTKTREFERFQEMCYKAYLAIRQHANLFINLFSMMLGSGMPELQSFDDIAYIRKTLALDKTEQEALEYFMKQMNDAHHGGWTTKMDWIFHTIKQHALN
# T1 sequence (P27986 whole entry partner): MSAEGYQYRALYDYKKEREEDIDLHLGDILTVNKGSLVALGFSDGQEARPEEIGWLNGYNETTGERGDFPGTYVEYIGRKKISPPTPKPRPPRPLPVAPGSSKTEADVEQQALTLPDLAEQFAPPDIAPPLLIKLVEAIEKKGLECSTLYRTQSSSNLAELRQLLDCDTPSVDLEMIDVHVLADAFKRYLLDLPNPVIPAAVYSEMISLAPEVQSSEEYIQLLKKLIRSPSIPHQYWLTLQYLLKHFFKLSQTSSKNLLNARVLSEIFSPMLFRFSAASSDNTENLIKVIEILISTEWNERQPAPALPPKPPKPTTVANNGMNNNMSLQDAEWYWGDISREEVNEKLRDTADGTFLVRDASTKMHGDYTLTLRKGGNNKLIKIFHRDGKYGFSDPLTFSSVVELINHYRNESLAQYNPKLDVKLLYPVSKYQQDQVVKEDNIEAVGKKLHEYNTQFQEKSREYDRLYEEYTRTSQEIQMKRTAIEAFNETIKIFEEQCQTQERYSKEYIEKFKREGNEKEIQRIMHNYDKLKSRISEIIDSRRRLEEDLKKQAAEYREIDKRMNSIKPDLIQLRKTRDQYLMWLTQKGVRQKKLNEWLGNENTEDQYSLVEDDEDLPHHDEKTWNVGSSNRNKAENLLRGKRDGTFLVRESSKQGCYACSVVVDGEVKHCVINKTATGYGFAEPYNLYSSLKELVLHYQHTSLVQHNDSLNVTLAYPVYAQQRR
IC50 (PI3Kα),SMILES,IC50 (Class I PI3-kinases)
1000 nM,"O=C1NC(=O)/C(=C/c2ccc3nccc(-c4ccncc4)c3c2)S1 [Example 1, (5Z)-5-{[4-(4-pyridinyl)-6-quinolinyl]methylidene}-1,3-thiazolidine-2,4-dione]",
,COC[C@H]1OC(=O)c2coc3c2[C@@]1(C)C1=C(C3=O)[C@@H]2CCC(=O)[C@@]2(C)C[C@H]1OC(C)=O [wortmannin],1 to 10 nM
